Experiments:
ulcerogenic activity = details: in vivo
Excerpt: The ulcerogenic activity of PSS (ulcerogenic index - 3.16) is lower than that of ASA (UI = 10.54) or indo- methacin (Ul - 25.28).

[1] = test system: pain induced in mouse by i.p. injection of acetic acid; assay: pain induced in mouse by i.p. injection of acetic acid; format: in vivo; details: i.p. acetic acid 30 minutes after oral administration
Description: The inhibitory dose30 levels (ID-30) for pain induced in mouse by i.p. injection of acetic acid 30 minutes after oral administration were: 46.3, 98.15, 40 and 129.6 for PSS, PS (phosphosal), ASA and SS, respectively.

[2] = test system: carrageenin induced rat paw oedema; assay: carrageenin induced rat paw oedema; format: in vivo; details: 200 mg/kg
Description: PSS has a 49 % anti-inflammatory activity at 200 mg/kg on carrageenin induced rat paw oedema.

[3] = test system: motor activity inhibition produced by inflammatory pain; assay: correction of motor activity inhibition produced by inflammatory pain; format: in vivo; details: 200 mg/kg
Description: PSS and ASA afford a 90 % correction of the motor activity inhibition produced by inflammatory pain at 200 mg/kg.

acute oral toxicity = details: in vivo, read-out: Acute toxicity (LDso)
[4] = gastrointestinal hemorrhages, blood in faeces (radioisotope method); format: in vivo; details: 400 mg/kg, faeces excreted during the following 4 days
beer yeast induced fever = beer yeast induced fever in the rat; format: in vivo
[5] = salicylic acid levels after continued administration for 14 days; format: in vivo; details: continued administration at equal dose levels for 14 days
[6] = test system: serum reducing activity (SH group levels); assay: correction of depressed serum reducing activity (SH group levels) in adjuvant arthritis; format: in vivo; details: 200 mg/kg/day
Description: In adjuvant arthritis, there is observed a depression of the serum reducing activity (SH group levels). PSS affords a 100 % correction at 200 mg/kg/day, while at equal dose levels ASA only affords a 60 % correction.

adjuvant arthritis = adjuvant arthritis inhibition; format: in vivo; details: 100-200 mg/kg/day, for 14 days
Description: At doses ranging from 100-200 mg/kg/day, for 14 days, PSS inhibits adjuvant arthritis by 40 - 50 %. At equal dose levels, inhibition by ASA is 0 - 39 %.

[7] = test system: death by respiratory distress caused by i.v. injection of arachidonic acid; assay: protection from death by respiratory distress caused by i.v. arachidonic acid; format: in vivo
Description: ASA provides 72 % protection at 50 mg/kg.

SMILES	ulcerogenic index (ulcerogenic activity)	inhibitory dose30 levels (ID-30) [1]	anti-inflammatory activity [2] [%]	correction of the motor activity inhibition produced by inflammatory pain [3] [%]	LD50 (acute oral toxicity) [mg/kg]	Gastrointestinal hemorrhages, measured as µl blood in faeces [4]	antipyretic activity (beer yeast induced fever)	salicylic acid levels [5]	correction of depression of the serum reducing activity (SH group levels) [6] [%]	inhibition of adjuvant arthritis (adjuvant arthritis)	protection from death by respiratory distress ([7]; 100 mg/kg)	protection from death by respiratory distress ([7]; 50 mg/kg) [%]
COc1ccc2c(c1)c(CC(=O)O)c(C)n2C(=O)c1ccc(Cl)cc1 [indo- methacin]	25.28											
O=C(Oc1ccccc1C(=O)O)c1ccccc1O [SS, 2-(2-hydroxyphenylcarbonyloxy) benzoic acid]		129.6	24	32.6								
O=C(O)c1ccccc1OP(=O)(O)O [PS, salicylic acid phosphonate]		98.15		65								
O=C(O)c1ccccc1OC(=O)c1ccccc1OP(=O)(O)O [PSS, 2-(2-phosphonoxyphenylcarbonyloxy) benzoic acid]	3.16	46.3	49	90	1590	significantly lower than those caused by ASA	superior to ASA and inferior to paracetamol	much higher salicylic acid levels for PSS than for ASA	100	40 - 50%	does not protect	
CC(=O)Oc1ccccc1C(=O)O [ASA, acetyl salycilic acid]	10.54	40	61	90	1100				60	0 - 39%		72

Reference: patent EP0254663B1, “2-(2-Phosphonoxyphenyl-Carbonyloxy)benzoic acid, salts thereof, a process for the preparation thereof” (SUEROS, ANTIBIOTICOS Y LABORATORIO DE VACUNOTERAPIA, …, priority 1986, dated 1988)
